Measurements taken from patent publication US8741897B2, “Glucocorticoid mimetics, methods of making them, pharmaceutical compositions and uses thereof” (Boehringer Ingelheim Pharmaceuticals Inc., priority 2003, dated 2014).

system: glucocorticoid receptor function; experiment: one or more of the above assays (GR binding and glucocorticoid receptor cell assays: aromatase, IL-6, TAT, MMTV-Luc, IL-8, ICAM-Luc); assay type: cell-based; details: assay not specified per compound
Protocol: B. Glucocorticoid Receptor Cell Assays
1. Induction of Aromatase in Fibroblasts (Cell Assay for Transactivation)
Dexamethasone, a synthetic ligand to the glucocorticoid receptor (GR), induces expression of aromatase in human foreskin fibroblast cells. The activity of aromatase is measured by the conversion of testosterone to estradiol in culture media.
On the day of the experiment, the media in the wells is replaced with fresh media. Cells are treated with test compounds to final concentrations of 10^−5 M to 10^−8 M, and testosterone to a final concentration of 300 ng/mL. Each well has a total volume of 100 μL. Samples are made in duplicates. Control wells include: (a) wells that receive testosterone only, and (b) wells that receive testosterone plus 2 μM of dexamethasone to provide maximum induction of aromatase. Plates are incubated at 37° C. overnight (15 to 18 hours), and supernatants are harvested at the end of incubation. […] The amount of estradiol is inversely proportional to the ELISA signals in each well. The extent of aromatase induction by test compounds is expressed as a relative percentage to dexamethasone. EC50 values of test compounds are derived by non-linear curve fitting.
2. Inhibition of IL-6 Production in Fibroblasts (Cell Assay for Transrepression)
Human foreskin fibroblast cells produce IL-6 in response to stimulation by proinflammatory cytokine IL-1.
On the next day, media in the wells is replaced with fresh media. Cells are treated with IL-1 (rhIL-1α, R&D Systems Cat. No. 200-LA) to a final concentration of 1 ng/mL, and with test compounds to final concentrations of 10^−5 M to 10^−8 M, in a total volume of 200 μL per well. Samples are done in duplicates. […] Positive control wells receive IL-1 only and represent maximum (or 100%) amount of IL-6 production. Plates are incubated at 37° C. overnight (15 to 18 hours), and supernatants are harvested at the end of incubation. IL-6 levels in the supernatants are determined by the ELISA kits for IL-6 (MedSystems Diagnostics GmbH, Vienna, Austria, Cat. No. BMS213TEN) according to manufacture's instructions. The extent of inhibition of IL-6 by test compounds is expressed in percentage relative to positive controls. IC50 values of test compounds are derived by non-linear curve fitting.
Evaluation of agonist or antagonist activity of compounds binding to the glucocorticoid receptor may be determined by any of the assays.
3. Modulation of Tyrosine Aminotransferase (TAT) Induction in Rat Hepatoma Cells
Testing of compounds for agonist or antagonist activity in induction of tyrosine aminotransferase (TAT) in rat hepatoma cells.
H4-II-E-C3 cells were incubated overnight in 96 well plates (20,000 cells/100 μL/well) in MEM medium containing 10% heat inactivated FBS and 1% nonessential amino acids. On the next day, cells were stimulated with the indicated concentrations of dexamethasone or test compound (dissolved in DMSO, final DMSO concentration 0.2%) for 18 hours. Control cells were treated with 0.2% DMSO. After 18 hours, the cells were lysed in a buffer containing 0.1% Triton X-100 and the TAT activity was measured in a photometric assay using tyrosine and alpha-ketoglutarate as substrates.
For measuring antagonist activity, the hepatoma cells were pre-stimulated by addition of dexamethasone (concentration ranges from 3×10^−9 M to 3×10^−8 M) shortly before the test compound was applied to the cells.
4. Modulation of MMTV-Luc Induction in HeLa Cells
Testing of compounds for agonist or antagonist activity in stimulation of MMTV-(mouse mammary tumor virus) promoter in HeLa cells.
Cells were cultured overnight in DMEM medium without phenol red, supplemented with 3% CCS (charcoal treated calf serum) and then transferred to 96 well plates (15,000 cells/100 μL/well).

| SMILES | activity as agonists of the glucocorticoid receptor function in one or more of the above assays |
| --- | --- |
| COc1ccc(-c2cncnc2)cc1C(C)(C)CC(O)(Cc1cc2cc(OC(C)C)ncc2[nH]1)C(F)(F)F (stereo not drawn) [1,1,1-Trifluoro-2-(5-isopropoxy-1H-pyrrolo[2,3-c]pyridin-2-ylmethyl)-4-(2-methoxy-5-pyrimidin-5-ylphenyl)-4-methylpentan-2-ol] | potent agonists |
| COc1ccc(-c2cccc3ccccc23)cc1C(C)(C)CC(O)(Cc1cc2cc(N3CCOCC3)ncc2[nH]1)C(F)(F)F (stereo not drawn) [1,1,1-Trifluoro-4-(2-methoxy-5-naphthalen-1-ylphenyl)-4-methyl-2-(5-morpholin-4-yl-1H-pyrrolo[2,3-c]pyridin-2-ylmethyl)pentan-2-ol] | potent agonists |
| COc1ccc(Br)cc1C(C)(C)CC(O)(Cc1cc2cc(N(C)C)ncc2[nH]1)C(F)(F)F (stereo not drawn) [4-(5-Bromo-2-methoxyphenyl)-2-(5-dimethylamino-1H-pyrrolo[2,3-c]pyridin-2-ylmethyl)-1,1,1-trifluoro-4-methylpentan-2-ol] | potent agonists |
| COc1cc(F)ccc1C(C)(C)CC(O)(Cc1cc2c(C)nccc2[nH]1)C(F)(F)F (stereo not drawn) [1,1,1-Trifluoro-4-(4-fluoro-2-methoxyphenyl)-4-methyl-2-(4-methyl-1H-pyrrolo[3,2-c]pyridin-2-ylmethyl)pentan-2-ol] | potent agonists |
| CC(C)(CC(O)(Cc1cc2cc(-c3ccccc3)nnc2[nH]1)C(F)(F)F)c1cccc(F)c1 (stereo not drawn) [1,1,1-Trifluoro-4-(3-fluorophenyl)-4-methyl-2-(3-phenyl-7H-pyrrolo[2,3-c]pyridazin-6-ylmethyl)pentan-2-ol] | potent agonists |
| CC(C)C(O)(Cc1cc2cc(-c3ccccc3)ncc2[nH]1)CC(C)(C)c1cc(Cl)cc2c1OCC2 (stereo not drawn) [5-(5-Chloro-2,3-dihydrobenzofuran-7-yl)-2,5-dimethyl-3-(5-phenyl-1H-pyrrolo[2,3-c]pyridin-2-ylmethyl)hexan-3-ol] | agonists |
| COc1ccc(F)cc1C(C)(C)CC(O)(Cc1cc2cnccc2[nH]1)C(C)(C)C (stereo not drawn) [5-(5-Fluoro-2-methoxyphenyl)-2,2,5-trimethyl-3-(1H-pyrrolo[3,2-c]pyridin-2-ylmethyl)hexan-3-ol] | agonists |
| COc1ccc(-c2ccccc2C#N)cc1C(C)(C)CC(O)(Cc1cc2cc(N3CCCCC3)ncc2[nH]1)C(F)(F)F (stereo not drawn) [4′-Methoxy-3′-[4,4,4-trifluoro-3-hydroxy-1,1-dimethyl-3-(5-piperidin-1-yl-1H-pyrrolo[2,3-c]pyridin-2-ylmethyl)butyl]biphenyl-2-carbonitrile] | potent agonists |
| Cc1c(CC(O)(CC(C)(C)c2ccc(F)cc2O)C(F)(F)F)[nH]c2cnccc12 (stereo not drawn) [5-Fluoro-2-[4,4,4-trifluoro-3-hydroxy-1,1-dimethyl-3-(3-methyl-1H-pyrrolo[2,3-c]pyridin-2-ylmethyl)butyl]phenol] | potent agonists |
| CC(C)(CC(O)(Cc1cc2nc(N3CCCC3)ncc2[nH]1)C(F)(F)F)c1cc(F)ccc1O (stereo not drawn) [4-Fluoro-2-[4,4,4-trifluoro-3-hydroxy-1,1-dimethyl-3-(2-pyrrolidin-1-yl-5H-pyrrolo[3,2-d]pyrimidin-6-ylmethyl)butyl]phenol] | potent agonists |
| COc1ccc(Br)cc1C(C)(C)CC(O)(Cc1cc2cc(Cl)ncc2[nH]1)C(F)(F)F (stereo not drawn) [4-(5-Bromo-2-methoxyphenyl)-2-(5-chloro-1H-pyrrolo[2,3-c]pyridin-2-ylmethyl)-1,1,1-trifluoro-4-methylpentan-2-ol] | potent agonists |
| COc1cc(F)ccc1C(C)(C)CC(O)(Cc1cc2cc(N(C)C)ncc2[nH]1)C(F)(F)F (stereo not drawn) [2-(5-Dimethylamino-1H-pyrrolo[2,3-c]pyridin-2-ylmethyl)-1,1,1-trifluoro-4-(4-fluoro-2-methoxyphenyl)-4-methylpentan-2-ol] | potent agonists |
| CC(C)(CC(O)(Cc1cc2ccncc2[nH]1)C(F)(F)F)c1cccc(C2OCCCO2)c1 (stereo not drawn) [4-(3-[1,3]Dioxan-2-ylphenyl)-1,1,1-trifluoro-4-methyl-2-(1H-pyrrolo[2,3-c]pyridin-2-ylmethyl)pentan-2-ol] | potent agonists |
| Cc1nccc2[nH]c(CC(O)(CC(C)(C)c3ccc(F)cc3O)C(F)(F)F)cc12 (stereo not drawn) [5-Fluoro-2-[4,4,4-trifluoro-3-hydroxy-1,1-dimethyl-3-(4-methyl-1H-pyrrolo[3,2-c]pyridin-2-ylmethyl)butyl]phenol] | potent agonists |
| CC(C)(CC(O)(Cc1cc2nc(-c3ccccc3)ncc2[nH]1)C(F)(F)F)c1cc(Cl)cc2c1OCC2 (stereo not drawn) [4-(5-Chloro-2,3-dihydrobenzofuran-7-yl)-1,1,1-trifluoro-4-methyl-2-(2-phenyl-5H-pyrrolo[3,2-d]pyrimidin-6-ylmethyl)pentan-2-ol] | potent agonists |
| COc1ccc(-c2ccccc2Cl)cc1C(C)(C)CC(O)(Cc1cc2cc(N3CCCCC3)ncc2[nH]1)C(F)(F)F (stereo not drawn) [4-(2′-Chloro-4-methoxybiphenyl-3-yl)-1,1,1-trifluoro-4-methyl-2-(5-piperidin-1-yl-1H-pyrrolo[2,3-c]pyridin-2-ylmethyl)pentan-2-ol] | potent agonists |
| CCN(C)c1cc2cc(CC(O)(CC(C)(C)c3cc(-c4ccccc4C#N)ccc3O)C(F)(F)F)[nH]c2cn1 (stereo not drawn) [3′-{3-[5-(Ethylmethylamino)-1H-pyrrolo[2,3-c]pyridin-2-ylmethyl]-4,4,4-trifluoro-3-hydroxy-1,1-dimethylbutyl}-4′-hydroxybiphenyl-2-carbonitrile] | potent agonists |
| Cc1cncc2[nH]c(CC(O)(CC(C)(C)c3ccc(F)cc3O)C(F)(F)F)cc12 (stereo not drawn) [5-Fluoro-2-[4,4,4-trifluoro-3-hydroxy-1,1-dimethyl-3-(4-methyl-1H-pyrrolo[2,3-c]pyridin-2-ylmethyl)butyl]phenol] | potent agonists |
| COc1ccc(-c2cncnc2)cc1C(C)(C)CC(O)(Cn1ccc2c1CCCC2=O)C(F)(F)F (stereo not drawn) [1-[2-Hydroxy-4-(2-methoxy-5-pyrimidin-5-ylphenyl)-4-methyl-2-trifluoromethylpentyl]-1,5,6,7-tetrahydroindol-4-one] | agonists |
| COc1ccc(-c2ccccc2)cc1C(C)(C)CC(O)(Cc1cc2ccncc2[nH]1)C(F)(F)F (stereo not drawn) [1,1,1-Trifluoro-4-(4-methoxybiphenyl-3-yl)-4-methyl-2-(1H-pyrrolo[2,3-c]pyridin-2-ylmethyl)pentan-2-ol] | potent agonists |
| CC(C)(CC(O)(Cc1cc2cc(C#N)ccc2[nH]1)C(F)(F)F)c1cc(S(C)(=O)=O)cc2c1OCC2 (stereo not drawn) [2-[2-Hydroxy-4-(5-methanesulfonyl-2,3-dihydrobenzofuran-7-yl)-4-methyl-2-trifluoromethylpentyl]-1H-indole-5-carbonitrile] | potent agonists |
